Test system: T1, KERUS
T1 construct: native extracellular enzyme purified from culture supernatant; mature form 275 aa of a 383-aa pre-pro-enzyme (pre 29 aa, pro 79 aa removed)
Assay: esterase activity, absorbance at […] nm, Lineweaver-Burk
Format: biochemical, Brevibacillus brevis
Settings: pH 8, 40°C, 10% (v/v) DMSO, 1% (v/v) Triton X-100

Km: 655 ± 33 µM
SMILES: CCOC(=O)[C@H](CCCN=C(N)N)NC(=O)c1ccccc1 [BAEE]
